Results on 29 molecules are retold here after PubChem BioAssay (NCI).

Broadly, the TGI is the concentration giving total growth inhibition. A lower TGI goes with more potent growth arrest.

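Exposure lasted 48 hours, with cells grown in 96-well plates and compounds tested at five concentrations. At the TGI there is no net growth.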

Holding throughout (assay): DTP human tumour cell line panel, 48 h
In assay [1] the test system is NCI-H522 lung.
Assay [2] deals with MALME-3M melanoma.
Assay [3] concerns M14 melanoma.
In assay [4] the test system is UACC-257 melanoma.
Assay [5] deals with OVCAR-4 ovarian.
The test system of assay [6] is SN12C renal.
Assay [7] has as its system OVCAR-5 ovarian.
Assay [8] has as its system HCC-2998 colon.
The subject of assay [9] is T-47D breast.

Turning to `COc1ccc(NC(=S)NN=C(C)c2cccc(C(C)=NNC(=S)Nc3ccc(OC)cc3)n2)cc1`, the TGI in [1], in assay [2], in assay [3], in assay [4], in assay [5] and in assay [6] was greater than 100 µM each time. Also, the TGI in assay [7], in assay [8] and in assay [9] was greater than 100 µM throughout.

For `C1=C2SSC3=CC=C(SSc4ccc(s4)SSC4=CC=C(SSC(=C1)S2)S4)S3`, the TGI in assay [1], in assay [2], in [3], in assay [4], in assay [5] and in assay [6] was greater than 100 µM throughout. Besides, the TGI in [7], in [8] and in [9] was greater than 100 µM in each case.

In the case of `C/C(=N\Nc1nc2cc(C)ccc2s1)c1ccccn1`, the total growth inhibition concentration (TGI) is greater than 19.9 µM in assay [1]; greater than 22 µM in assay [2]; 3.68 µM in assay [3]; greater than 100 µM in assay [4]; greater than 60.5 µM in assay [5]; 8.85 µM in assay [6]. The TGI in [7] is 19.9 µM; in [8] it was 28.5 µM; in assay [9], greater than 89.7 µM.

Regarding `O=C1CC(NC(=O)C(F)(F)F)c2c(Br)sc(N3CCC(c4ccccc4)CC3)c21` (stereo unspecified), the TGI is greater than 100 µM in assay [1]; greater than 100 µM in [2]; greater than 100 µM in assay [3]; 82.4 µM in assay [4]; 92.6 µM in [5]; greater than 100 µM in assay [6]. Besides, the values for the TGI in assay [7], in assay [8] and in assay [9] were greater than 100 µM, greater than 100 µM and 55.4 µM, respectively.

With `COc1ccc(-n2c(CCCC(=O)O)nc3c2C(=O)c2ccccc2C3=O)cc1`, the TGI was greater than 100 µM in [1]; 59.7 µM in [2]; 39 µM in [3]; greater than 100 µM in assay [4]; greater than 100 µM in assay [5]; greater than 100 µM in assay [6]. In addition, the TGI in assay [7], in assay [8] and in [9] was greater than 100 µM each time.

Take `O=c1cnn(C2OC(CO)C(O)C(F)C2O)c(=O)[nH]1` (stereo unspecified): the TGI in assay [1], in [2], in [3], in assay [4], in assay [5] and in [6] was greater than 100 µM each time. Also, the TGI in assay [7], in [8] and in assay [9] was greater than 100 µM throughout.

Take `C=C(NC(=O)C(=C)NC(=O)c1csc(C2=NC3c4csc(n4)C4NC(=O)c5csc(n5)C(C(C)(O)C(C)O)NC(=O)C5CSC(=N5)/C(=C/C)NC(=O)C(C(C)O)NC(=O)c5csc(n5)C3(CC2)NC(=O)C(C)NC(=O)C(=C)NC(=O)C(=C)NC(=O)C(C(C)C)NC2C=Cc3c(C(C)O)cc(nc3C2O)C(=O)OC4C)n1)C(N)=O` (stereo unspecified): the TGI in [1] was 0.322 µM; in assay [2] it was 0.786 µM; in [3], greater than 28.5 µM; in assay [4], 18.7 µM; in assay [5] it was greater than 83.5 µM; in [6], greater than 38 µM. Moreover, the TGI is 28.2 µM in [7], greater than 58.1 µM in assay [8] and 25 µM in assay [9].

Take `N/C(CC/C(N)=N\O)=N\O`: the TGI in assay [1], in [2], in assay [3], in assay [4], in assay [5] and in [6] was greater than 100 µM each time. Moreover, the TGI in assay [7], in assay [8] and in assay [9] was greater than 100 µM throughout.

Turning to `COc1ccc(C2CC(c3cc4c(C)c(C(=O)c5ccccc5)oc4cc3O)=Nc3ccccc3S2)cc1OC` (stereo unspecified), the TGI in assay [1] is greater than 85 µM; in [2], greater than 100 µM; in assay [3] it was greater than 100 µM; in assay [4], greater than 100 µM; in assay [5], greater than 48.9 µM; in assay [6], greater than 100 µM. For the same molecule, the TGI in assay [7] was greater than 100 µM; in [8], greater than 100 µM; in assay [9], greater than 85.8 µM.

Consider `CC(=O)N[C@@H](Cc1ccc(O)cn1)C(=O)NCc1cccc(F)c1`, for which the TGI in [1], in assay [2], in assay [3], in assay [4], in [5] and in assay [6] was greater than 100 µM in each case. In addition, the TGI in [7], in [8] and in assay [9] was greater than 100 µM each time.

As for `Oc1ccc(-c2cc(-c3c(O)cc(O)cc3O)on2)cc1`, the TGI in [1], in [2], in [3], in assay [4], in assay [5] and in assay [6] was greater than 100 µM throughout. Moreover, the TGI in assay [7], in assay [8] and in [9] was greater than 100 µM each time.

With `c1ccc(COc2ccc(C[P+](c3ccccc3)(c3ccccc3)c3ccccc3)cc2)cc1`, the TGI in assay [1] was 1.61 µM; in [2], 1.82 µM; in assay [3], 4.97 µM; in [4], 11.6 µM; in [5], 1.84 µM; in [6] it was 5.03 µM. Also, the results for the TGI in assay [7], in assay [8] and in [9] were 2.2 µM, 4.81 µM and 0.839 µM, respectively.

With `CN(C)CC1CCC/C(=C\c2ccc(N(C)C)cc2)C1=O` (stereo unspecified), the TGI in assay [1] was 3.21 µM; in assay [2], 24.5 µM; in [3], 9.46 µM; in assay [4], 26.3 µM; in assay [5], 4.4 µM; in assay [6], 29.6 µM. Further, the TGI in assay [7] stood at 26.9 µM; in assay [8], 29.4 µM; in [9], 4.11 µM.

For `O=C1N[C@H]2c3c(Cl)sc(Cl)c3C(=O)[C@H]2O1`, the TGI is 3.43 µM in [1]; 24.1 µM in [2]; 52.6 µM in [3]; 36.2 µM in assay [4]; 37.5 µM in assay [5]; greater than 47.6 µM in assay [6]. Further, the TGI in assay [7] is 51.1 µM; in assay [8], 19.9 µM; in assay [9], greater than 64.8 µM.

As for `O=S(=O)(O)c1ccc(NN(c2c(O)ccc3ccccc23)S(=O)(=O)O)cc1`, the TGI in assay [1], in [2], in assay [3], in assay [4], in [5] and in assay [6] was greater than 100 µM throughout. Also, the TGI in [7], in assay [8] and in assay [9] was greater than 100 µM each time.

Regarding `CCOC(=O)C1(Cc2ccc(C)cc2)Cc2ccc(C)cc2C1=O` (stereo unspecified), the TGI in [1] is 36.9 µM; in assay [2], greater than 97.1 µM; in assay [3], 47.3 µM; in [4], 98.2 µM; in assay [5], greater than 100 µM; in [6], greater than 100 µM. In addition, the TGI was greater than 100 µM in assay [7], greater than 92.7 µM in assay [8] and greater than 74.6 µM in assay [9].

Turning to `CSc1nc2c(c(N(C)C)n1)C=Nn1c(nc3ccccc31)S2`, the TGI in assay [1], in assay [2], in assay [3], in [4], in assay [5] and in [6] was greater than 100 µM throughout. Also, the TGI in assay [7], in assay [8] and in assay [9] was greater than 100 µM throughout.

As for `C[N+]1(C)C2Cc3ccccc3C1Cc1ccccc12`, the TGI in assay [1], in assay [2], in assay [3], in assay [4], in [5] and in [6] was greater than 100 µM in each case. For the same molecule, the TGI in assay [7], in assay [8] and in [9] was greater than 100 µM throughout.

For `COc1ccc2nc3ccc(OC)cc3c(S(=O)Cc3ccc([N+](=O)[O-])cc3)c2c1` (stereo unspecified), the TGI in [1] was 3.37 µM; in assay [2] it was 5.18 µM; in [3], 30.6 µM; in assay [4], 11.4 µM; in assay [5], 23.7 µM; in assay [6], 9.94 µM. The TGI in assay [7] worked out at 34.5 µM; in [8] it was 34 µM; in [9], 4.34 µM.

Take `COC(=O)C1Cc2c(C)cccc2C1=O` (stereo unspecified): the TGI in [1], in [2], in assay [3], in [4], in assay [5] and in assay [6] was greater than 100 µM in each case. Further, the TGI in assay [7], in assay [8] and in assay [9] was greater than 100 µM each time.

Regarding `O=[N+]([O-])/C(C(Cl)=C(Cl)Cl)=C1\Nc2ccccc2O1`, the TGI in assay [1] is 63.8 µM; in [2] it was greater than 100 µM; in assay [3], greater than 100 µM; in assay [4] it was greater than 100 µM; in assay [5], greater than 100 µM; in assay [6] it was greater than 100 µM. In addition, the TGI in assay [7], in [8] and in [9] was greater than 100 µM in each case.

`COc1ccc(CN2C(=O)CCC/C=C\[C@H]2CI)cc1`: the TGI worked out at 26.5 µM in assay [1]; 24.4 µM in [2]; 22.6 µM in assay [3]; 21.7 µM in [4]; 22.8 µM in assay [5]; 27 µM in assay [6]. Moreover, the values for the TGI in assay [7], in assay [8] and in assay [9] were 24.5 µM, 23.8 µM and 6.69 µM, respectively.

As for `N#CC(c1ccc(O)cc1)N1CCN(C(C#N)c2ccc(O)cc2)CC1` (stereo unspecified), the TGI in assay [1], in assay [2], in [3], in assay [4], in assay [5] and in assay [6] was greater than 100 µM in each case. The TGI in assay [7] was greater than 100 µM; in assay [8], greater than 100 µM; in [9], greater than 82.9 µM.

Take `COc1cc2c(cc1OC)C(=O)N(c1ccc(O)cc1)C2`: the TGI in assay [1], in assay [2], in [3], in [4], in [5] and in assay [6] was greater than 100 µM throughout. The TGI in assay [7], in [8] and in assay [9] was greater than 100 µM each time.

Consider `NC1=CN(CCCO)C2=N/C(=C\c3ccco3)C(=O)N12`, for which the TGI in [1], in [2], in assay [3], in [4], in assay [5] and in [6] was greater than 100 µM throughout. The TGI in [7], in assay [8] and in assay [9] was greater than 100 µM each time.

For `CCC1(O)C=CC(=O)C=C1`, the TGI in assay [1] is 24.7 µM; in assay [2] it was 28.2 µM; in [3], 40.4 µM; in assay [4], greater than 52.5 µM; in assay [5], greater than 100 µM; in [6] it was greater than 100 µM. Further, the TGI in assay [7] is greater than 100 µM; in assay [8] it was greater than 100 µM; in assay [9], 67.7 µM.

As for `CCOC(=O)c1ccc(NC2Oc3cc4c(cc3C(c3cc(OC)c(OC)c(OC)c3)C2C)OCO4)cc1` (stereo unspecified), the TGI in assay [1] was 10.6 µM; in [2] it was 0.677 µM; in assay [3] it was greater than 50.9 µM; in assay [4], greater than 100 µM; in assay [5] it was greater than 64.7 µM; in [6], greater than 71.5 µM. Further, the TGI in [7] was greater than 100 µM; in [8] it was 6.32 µM; in [9], greater than 100 µM.

For the molecule `O=C(C=P(c1ccccc1)(c1ccccc1)c1ccccc1)C12CC3CC(CC(C3)C1)C2`, the TGI in assay [1] turned out to be 20.6 µM; in assay [2], 38 µM; in assay [3], 32.7 µM; in assay [4], 32.8 µM; in [5] it was 52.9 µM; in assay [6], 32.3 µM. The TGI in [7] is 32.7 µM; in assay [8], 32.1 µM; in assay [9], 38.2 µM.

For `CCOC(=O)NNC(=O)NCCNC(=O)NNC(=O)OCC`, the TGI in [1], in assay [2], in assay [3], in assay [4], in assay [5] and in [6] was greater than 100 µM throughout. For the same molecule, the TGI in [7], in assay [8] and in [9] was greater than 100 µM each time.
